Results as given in patent US7888394B2, “Synthesis, polymorphs, and pharmaceutical formulation of FAAH inhibitors” (N.V. Organon, priority 2006, dated 2011).

Legend:
[1] = test system: fatty acid amide hydrolase (FAAH); conditions: cited from earlier work
[2] = Oral bioavailability determination of KDS-4103 polymorphs: plasma concentrations after oral administration of suspensions to rats; type: in vivo; conditions: oral gavage, 100 mg/mL suspension at 1 ml/kg
[3] = Particle size determination of KDS-4103 polymorphs (Malvern Mastersizer 2000 Hydro S, dispersed in hexane); type: physicochemical; conditions: 1 minute sonication (47 kHz), 10,000 sweeps
Protocol: “Effective particle size,” as used herein refers to and is determined on the basis of the volume weight average particle size as measured by conventional particle size measuring techniques well known to those skilled in the art. Such techniques include, for example, sedimentation field flow fractionation, photon correlation spectroscopy, light scattering, laser diffraction and disc centrifugation. For the purposes of the compositions, formulations and methods described herein, effective particle size is the volume mass average particle size as determined using light scattering methods, e.g. Horiba LA-950. For example, an effective particle size of 5.9 μm means that 50% of the particles by weight are less than 5.9 μm and 50% of the particles by weight are greater than 5.9 μm.

[4] = Oral bioavailability determination of KDS-4103 polymorphs: plasma concentrations after oral administration of suspensions to rats; type: in vivo; conditions: for [KDS-4103] plasma concentration: oral gavage, 100 mg/mL suspension at 1 ml/kg
Protocol: Animals were sacrificed at 30, 60 and 90 minutes post-dose in each group. Collection of K3EDTA was acheived via cardiac puncture.

NC(=O)c1cccc(-c2cccc(OC(=O)NC3CCCCC3)c2)c1 [KDS-4103]
inhibition of FAAH activity [1]: potent and selective inhibitor of FAAH activity

NC(=O)c1cccc(-c2cccc(OC(=O)NC3CCCCC3)c2)c1 [KDS-4103 polymorph from acetonitrile]
concentration at 0 min ([2]; rat, plasma, po, 100 mg/kg, [KDS-4103] plasma concentration): 0 ng/mL | average effective average particle size ([3]; listed as KDS-4103 from acetonitrile): about 5.9 μm | [KDS-4103] plasma concentration ([4]; time 30 minutes post-dose): 196.06 ng/mL | [KDS-4103] plasma concentration ([4]; time 60 minutes post-dose): 58.95 ng/mL | [KDS-4103] plasma concentration ([4]; time 90 minutes post-dose): 105.36 ng/mL | levels of the compound in circulation compared to the polymorph obtained from EtOH ([4]; oral suspension): increased levels of the compound in circulation | bioavailability of the suspension ([4]; oral suspension, compared to polymorph from ethanol): increased bioavailability

NC(=O)c1cccc(-c2cccc(OC(=O)NC3CCCCC3)c2)c1 [KDS-4103 polymorph from ethanol]
[KDS-4103] plasma concentration ([2]; time 0 minutes): 0.00 ng/mL | average effective average particle size ([3]; listed as KDS-4103 from ethanol): about 13.9 μm | [KDS-4103] plasma concentration ([4]; time 30 minutes post-dose): 9.62 ng/mL | [KDS-4103] plasma concentration ([4]; time 60 minutes post-dose): 12.60 ng/mL | [KDS-4103] plasma concentration ([4]; time 90 minutes post-dose): 10.74 ng/mL
